Where a name gives a salt, the structure may show the parent alone.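 Following 48 hours of exposure in 96-well plates, responses at five concentrations were used to interpolate endpoints linearly. The concentration for 50% growth inhibition is given as GI50.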 The source made the active and inactive calls. Rule as the data show it: active = GI50 up to about 1.1 µM and inactive = higher.
What was measured:
Assay in all cases: DTP human tumour cell line panel, 48 h
786-0 = system: 786-0
A549 = system: A549
ACHN = system: ACHN
BT-549 = system: BT-549
CAKI-1 = system: CAKI-1
CCRF-CEM = system: CCRF-CEM
COLO 205 = system: COLO 205
DU-145 = system: DU-145
EKVX = system: EKVX
HCC 2998 = system: HCC 2998
HCT-116 = system: HCT-116
HCT-15 = system: HCT-15
HL-60 = system: HL-60
HOP-62 = system: HOP-62
HOP-92 = system: HOP-92
HT-29 = system: HT-29
IGROV-1 = system: IGROV-1
K562 = system: K562
KM12 = system: KM12
M14 = system: M14
MCF7 = system: MCF7
MDA-N = system: MDA-N
MOLT-4 = system: MOLT-4
Malme-3M = system: Malme-3M
NCI-H226 = system: NCI-H226
NCI-H23 = system: NCI-H23
NCI-H460 = system: NCI-H460
NCI-H522 = system: NCI-H522
NCI/ADR-RES = system: NCI/ADR-RES
OVCAR-3 = system: OVCAR-3
OVCAR-4 = system: OVCAR-4
OVCAR-5 = system: OVCAR-5
OVCAR-8 = system: OVCAR-8
PC-3 = system: PC-3
RPMI-8226 = system: RPMI-8226
RXF 393 = system: RXF 393
SF-268 = system: SF-268
SF-295 = system: SF-295
SF-539 = system: SF-539
SK-MEL-28 = system: SK-MEL-28
SK-MEL-5 = system: SK-MEL-5
SK-OV-3 = system: SK-OV-3
SN12C = system: SN12C
SNB-19 = system: SNB-19
SNB-75 = system: SNB-75
SR = system: SR
SW-620 = system: SW-620
TK-10 = system: TK-10
U-251 = system: U-251
UACC-257 = system: UACC-257
UACC-62 = system: UACC-62
UO-31 = system: UO-31
LOX IMVI = system: LOX IMVI
MDA-MB-435 = system: MDA-MB-435
Hs-578T = system: Hs-578T
SK-MEL-2 = system: SK-MEL-2

Question: For CCN(CC)CCn1c(C(C)(C)C)nc2ccccc21, which GI50 (786-0) is on record?
Answer: 18.7 µM (inactive)

Question: And the GI50 (A549)?
Answer: > 100 µM (inactive)

Question: And the GI50 (ACHN)?
Answer: > 100 µM (inactive)

Question: What about the GI50 (BT-549) of the same compound?
Answer: 36.1 µM (inactive)

Question: What about the GI50 (CAKI-1) of the same compound?
Answer: > 100 µM (inactive)

Question: What about the GI50 (CCRF-CEM) of the same compound?
Answer: > 100 µM (inactive)

Question: And the GI50 (COLO 205)?
Answer: > 100 µM (inactive)

Question: And the GI50 (DU-145)?
Answer: > 100 µM (inactive)

Question: And the GI50 (EKVX)?
Answer: > 100 µM (inactive)

Question: What about the GI50 (HCC 2998) of the same compound?
Answer: > 100 µM (inactive)

Question: What about the GI50 (HCT-116) of the same compound?
Answer: > 100 µM (inactive)

Question: What about the GI50 (HCT-15) of the same compound?
Answer: > 100 µM

Question: And the GI50 (HL-60)?
Answer: > 100 µM (inactive)

Question: What about the GI50 (HOP-62) of the same compound?
Answer: > 100 µM (inactive)

Question: And the GI50 (HOP-92)?
Answer: > 100 µM (inactive)

Question: And the GI50 (HT-29)?
Answer: > 100 µM (inactive)

Question: What about the GI50 (IGROV-1) of the same compound?
Answer: > 100 µM (inactive)

Question: And the GI50 (K562)?
Answer: > 100 µM (inactive)

Question: What about the GI50 (KM12) of the same compound?
Answer: > 100 µM (inactive)

Question: What about the GI50 (M14) of the same compound?
Answer: > 100 µM (inactive)

Question: And the GI50 (MCF7)?
Answer: > 100 µM (inactive)

Question: And the GI50 (MDA-N)?
Answer: > 100 µM (inactive)

Question: And the GI50 (MOLT-4)?
Answer: > 100 µM (inactive)

Question: What about the GI50 (Malme-3M) of the same compound?
Answer: > 100 µM (inactive)

Question: What about the GI50 (NCI-H226) of the same compound?
Answer: > 100 µM (inactive)

Question: And the GI50 (NCI-H23)?
Answer: > 100 µM (inactive)

Question: What about the GI50 (NCI-H460) of the same compound?
Answer: > 100 µM (inactive)

Question: What about the GI50 (NCI-H522) of the same compound?
Answer: 38.6 µM (inactive)

Question: And the GI50 (NCI/ADR-RES)?
Answer: > 100 µM (inactive)

Question: What about the GI50 (OVCAR-3) of the same compound?
Answer: > 100 µM (inactive)

Question: What about the GI50 (OVCAR-4) of the same compound?
Answer: > 100 µM (inactive)

Question: And the GI50 (OVCAR-5)?
Answer: > 100 µM (inactive)

Question: And the GI50 (OVCAR-8)?
Answer: > 100 µM (inactive)

Question: And the GI50 (PC-3)?
Answer: > 100 µM (inactive)

Question: And the GI50 (RPMI-8226)?
Answer: > 100 µM (inactive)

Question: And the GI50 (RXF 393)?
Answer: > 100 µM (inactive)

Question: What about the GI50 (SF-268) of the same compound?
Answer: > 100 µM (inactive)

Question: What about the GI50 (SF-295) of the same compound?
Answer: > 100 µM (inactive)

Question: What about the GI50 (SF-539) of the same compound?
Answer: > 100 µM (inactive)

Question: And the GI50 (SK-MEL-28)?
Answer: > 100 µM (inactive)

Question: What about the GI50 (SK-MEL-5) of the same compound?
Answer: > 10 µM (inactive)

Question: What about the GI50 (SK-OV-3) of the same compound?
Answer: > 100 µM (inactive)

Question: And the GI50 (SN12C)?
Answer: > 100 µM (inactive)

Question: And the GI50 (SNB-19)?
Answer: > 100 µM (inactive)

Question: And the GI50 (SNB-75)?
Answer: > 100 µM (inactive)

Question: What about the GI50 (SR) of the same compound?
Answer: > 100 µM (inactive)

Question: What about the GI50 (SW-620) of the same compound?
Answer: > 100 µM (inactive)

Question: What about the GI50 (TK-10) of the same compound?
Answer: > 100 µM (inactive)

Question: What about the GI50 (U-251) of the same compound?
Answer: 30.7 µM (inactive)

Question: And the GI50 (UACC-257)?
Answer: > 100 µM (inactive)

Question: What about the GI50 (UACC-62) of the same compound?
Answer: > 100 µM (inactive)

Question: And the GI50 (UO-31)?
Answer: > 100 µM (inactive)

Question: What does the source list for Cn1c2nc3ccccc3c-2cc2ccccc21 [NEOCRYPTOLEPINE HYDROCHLORIDE]?
Answer: GI50 (CCRF-CEM): 4.4 µM (inactive); GI50 (COLO 205): 2.76 µM (inactive); GI50 (DU-145): 12.8 µM (inactive); GI50 (EKVX): 3.98 µM (inactive); GI50 (HL-60): 3.62 µM (inactive); GI50 (HT-29): 4.69 µM (inactive); GI50 (IGROV-1): 4.6 µM (inactive); GI50 (K562): 4.3 µM (inactive); GI50 (LOX IMVI): 5.07 µM (inactive); GI50 (MCF7): 3.21 µM (inactive); GI50 (MDA-MB-435): 5.65 µM (inactive); GI50 (NCI-H460): 3.29 µM (inactive); GI50 (OVCAR-3): 6.4 µM (inactive); GI50 (PC-3): 5.45 µM (inactive); GI50 (SF-295): 6.34 µM (inactive); GI50 (SF-539): 5.74 µM (inactive); GI50 (SR): 2.93 µM (inactive); GI50 (SW-620): 5.79 µM (inactive)

Question: Which GI50 (786-0) does the source give for CC1(C)C(O)C[C@]23CCC[C@](C)(C[C@@H](O)C12)C3 (stereo not given in full) here?
Answer: 32.9 µM (inactive)

Question: What about the GI50 (A549) of the same compound?
Answer: 38.2 µM (inactive)

Question: And the GI50 (ACHN)?
Answer: > 100 µM (inactive)

Question: And the GI50 (BT-549)?
Answer: > 100 µM (inactive)

Question: What about the GI50 (CAKI-1) of the same compound?
Answer: > 100 µM (inactive)

Question: And the GI50 (CCRF-CEM)?
Answer: > 100 µM (inactive)

Question: And the GI50 (COLO 205)?
Answer: > 100 µM (inactive)

Question: What about the GI50 (EKVX) of the same compound?
Answer: > 100 µM (inactive)

Question: And the GI50 (HCT-15)?
Answer: > 100 µM

Question: What about the GI50 (HL-60) of the same compound?
Answer: > 100 µM (inactive)

Question: What about the GI50 (HOP-62) of the same compound?
Answer: > 100 µM (inactive)

Question: What about the GI50 (HOP-92) of the same compound?
Answer: > 100 µM (inactive)

Question: What about the GI50 (HT-29) of the same compound?
Answer: > 100 µM (inactive)

Question: And the GI50 (Hs-578T)?
Answer: > 100 µM (inactive)

Question: And the GI50 (IGROV-1)?
Answer: > 100 µM (inactive)

Question: And the GI50 (K562)?
Answer: > 100 µM (inactive)

Question: What about the GI50 (KM12) of the same compound?
Answer: > 100 µM (inactive)

Question: And the GI50 (LOX IMVI)?
Answer: > 100 µM (inactive)

Question: What about the GI50 (M14) of the same compound?
Answer: > 100 µM (inactive)

Question: And the GI50 (MCF7)?
Answer: > 100 µM (inactive)

Question: What about the GI50 (MDA-MB-435) of the same compound?
Answer: > 100 µM (inactive)

Question: And the GI50 (MOLT-4)?
Answer: > 100 µM (inactive)

Question: And the GI50 (Malme-3M)?
Answer: > 100 µM (inactive)

Question: And the GI50 (NCI-H226)?
Answer: > 100 µM (inactive)

Question: And the GI50 (NCI-H23)?
Answer: > 100 µM (inactive)

Question: What about the GI50 (NCI-H460) of the same compound?
Answer: > 100 µM (inactive)

Question: What about the GI50 (NCI-H522) of the same compound?
Answer: > 100 µM (inactive)

Question: And the GI50 (NCI/ADR-RES)?
Answer: > 100 µM (inactive)

Question: What about the GI50 (OVCAR-3) of the same compound?
Answer: > 100 µM (inactive)

Question: And the GI50 (OVCAR-4)?
Answer: > 100 µM (inactive)

Question: What about the GI50 (OVCAR-5) of the same compound?
Answer: > 100 µM (inactive)

Question: What about the GI50 (OVCAR-8) of the same compound?
Answer: > 100 µM (inactive)

Question: And the GI50 (PC-3)?
Answer: > 100 µM (inactive)

Question: What about the GI50 (RPMI-8226) of the same compound?
Answer: > 100 µM (inactive)

Question: And the GI50 (SF-268)?
Answer: > 100 µM (inactive)

Question: And the GI50 (SF-295)?
Answer: > 100 µM (inactive)

Question: And the GI50 (SK-MEL-28)?
Answer: > 100 µM (inactive)

Question: And the GI50 (SK-MEL-2)?
Answer: > 100 µM (inactive)

Question: What about the GI50 (SK-MEL-5) of the same compound?
Answer: > 100 µM (inactive)

Question: What about the GI50 (SK-OV-3) of the same compound?
Answer: > 100 µM (inactive)

Question: What about the GI50 (SN12C) of the same compound?
Answer: > 100 µM (inactive)

Question: And the GI50 (SNB-19)?
Answer: > 100 µM (inactive)

Question: What about the GI50 (SNB-75) of the same compound?
Answer: > 100 µM (inactive)

Question: And the GI50 (SR)?
Answer: > 100 µM (inactive)

Question: What about the GI50 (SW-620) of the same compound?
Answer: > 100 µM (inactive)

Question: And the GI50 (TK-10)?
Answer: > 100 µM (inactive)

Question: What about the GI50 (U-251) of the same compound?
Answer: > 100 µM (inactive)

Question: And the GI50 (UACC-257)?
Answer: > 100 µM (inactive)

Question: And the GI50 (UACC-62)?
Answer: > 100 µM (inactive)

Question: What about the GI50 (UO-31) of the same compound?
Answer: > 100 µM (inactive)

Source: ChEMBL document CHEMBL1201862, “PubChem BioAssay data set” (2004)
